Usually IC50 stands for the concentration at which inhibition is half-maximal.

The structures appear in SMILES notation.

19 compounds from patent US20150246025A1, “2-PHENYL-5-HETEROCYCLYL-TETRAHYDRO-2H-PYRAN-3-AMINE COMPOUNDS FOR USE IN THE TREATMENT OF DIABETES AND ITS ASSOCIATED DISORDERS” (CADILA HEALTHCARE LIMITED, priority 2012, published 2015) can be followed below.

One assay deals with C57BL/6J mice. In words: In vivo antihyperglycaemic/antidiabetic activity (OGTT), acute single dose 120-min time-course. As to conditions: Mus musculus, 2 h; male C57BL/6J mice, acute single dose 0,3 mg/kg po, 120-min time-course, n = 6, Mean ± SEM; read-out: In vivo OGTT C57; % Glucose change. The protocol: Acute single dose 120-min time-course experiments were carried out in male C57BL/6J mice, age 8-12 weeks, bred in-house. Animals were housed in groups of 6 animals per cage, for a week, in order to habituate them to vivarium conditions (25±4° C., 60-65% relative humidity, 12: 12 h light: dark cycle, with lights on at 7.30 am). All the animal experiments were carried out according to the internationally valid guidelines following approval by the ‘Zydus Research Center animal ethical committee’.
The in-vivo glucose lowering properties of the test compounds were evaluated in C57BL/6J (mild hyperglycemic) animal models as described below. Two days prior to the study, the animals were randomized and divided into groups (n=6), based upon their fed glucose levels. On the day of experiment, food was withdrawn from all the cages, water was given ad-libitum and were kept for overnight fasting. Vehicle (normal saline)/test compounds were administered orally, on a body weight basis. Soon after the 0 min. blood collection from each animal, the subsequent blood collections were done at 30, 60 and 120 or upto 240 min., via retro-orbital route, under light ether anesthesia (Diabetes Obesity Metabolism, 7, 307, 2005; Diabetes, 52, 751, 2003).
Blood samples were centrifuged and the separated serum was immediately subjected for the glucose estimation. Serum for insulin estimation was stored at −70° C. until used for the insulin estimation. The glucose estimation was carried out with DPEC-GOD/POD method (Ranbaxy Fine Chemicals Limited, Diagnostic division, India), using Spectramax-190, in 96-microwell plate reader (Molecular devices Corporation, Sunnyvale, Calif.). […] The AUC and BCAUC obtained from graphs were analyzed for one way ANOVA, followed by Dunnett's post test, using Graph Pad prism software.

A further assay addresses T1, DPP-IV enzyme (Homo sapiens, UniProt P27487).
T1 construct: soluble human proteins (DPP-IV enzyme) produced in a baculovirus expression system; made in house; host or cells: baculovirus expression system (Life Technologies)
In words: In vitro DPP-IV inhibitory activity using enzymatic (fluorescence-based) assay. The class given is biochemical. Conditions: soluble human DPP-IV, H-Gly-Pro-AMC 200 μM, pH 7.8, 25° C., 30 min; read-out: % In-vitro DPPIV Inhibition IC50. The procedure:
In Vitro DPP-IV Inhibitory Activity Using Enzymatic Assay:
In vitro enzyme (DPP-IV) inhibitory activity was determined using fluorescence-based assay (Anal. Biochem., 200, 352, 1992). The Gly-Pro-AMC was used as a substrate (which is cleaved by the enzymes to release the fluorescent AMC) and soluble human proteins (DPP-IV enzyme) produced in a baculovirus expression system (Life Technologies) was used as the enzyme source. The H-Gly-Pro-AMC (200 μM) was incubated with DPP-IV enzyme in the presence of various concentrations (30 & 100 nM) of test compounds. Reaction was carried out at pH 7.8 (HEPES buffer 25 mM containing 1.0% BSA, 140 mM NaCl, 16 mM MgCl2, 2.8% DMSO) in a total volume of 100 μl at 25° C. for 30 min., in the dark. Reaction was terminated with acetic acid (25 μl of 25% solution). Activity (fluorescence) was measured using Spectra Max fluorometer (Molecular Devices, Sunnyvale Calif.) by exciting at 380 nm and emission at 460 nm.

T1 sequence (P27487 39-766 limits assumed): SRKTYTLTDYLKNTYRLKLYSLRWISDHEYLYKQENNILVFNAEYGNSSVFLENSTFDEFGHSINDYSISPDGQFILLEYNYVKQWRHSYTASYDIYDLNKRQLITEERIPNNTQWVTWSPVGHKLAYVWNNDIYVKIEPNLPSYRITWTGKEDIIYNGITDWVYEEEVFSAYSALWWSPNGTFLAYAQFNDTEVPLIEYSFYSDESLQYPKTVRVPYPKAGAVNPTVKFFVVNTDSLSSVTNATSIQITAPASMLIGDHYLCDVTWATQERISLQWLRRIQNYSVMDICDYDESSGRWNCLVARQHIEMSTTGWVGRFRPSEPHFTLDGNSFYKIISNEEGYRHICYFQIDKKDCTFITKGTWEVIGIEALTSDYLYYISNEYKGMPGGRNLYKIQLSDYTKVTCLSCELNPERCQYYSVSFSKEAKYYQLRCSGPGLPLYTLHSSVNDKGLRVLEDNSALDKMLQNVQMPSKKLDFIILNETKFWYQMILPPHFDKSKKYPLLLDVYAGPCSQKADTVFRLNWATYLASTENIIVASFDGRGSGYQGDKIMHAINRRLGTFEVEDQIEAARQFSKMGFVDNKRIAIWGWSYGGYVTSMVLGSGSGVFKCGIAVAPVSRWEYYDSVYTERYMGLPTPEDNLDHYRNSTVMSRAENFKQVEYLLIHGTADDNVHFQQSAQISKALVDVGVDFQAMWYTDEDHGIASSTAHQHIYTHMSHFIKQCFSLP

Turning to `CC(C)C(=O)N1CC2=C(C1)CN([C@H]1CO[C@H](c3cc(F)ccc3F)[C@@H](N)C1)C2` [Compound 24, 1-(5-((3R,5S,6R)-5-amino-6-(2,5-difluorophenyl)tetrahydro-2H-pyran-3-yl)-5,6-dihydropyrrolo[3,4-c]pyrrol-2(1H,3H,4H)-yl)-2-methylpropan-1-one], the change in vivo at 0.3 mg/kg in the assay with C57BL/6J mice was -18.9 ± 5.7%. Further, the half-inhibitory concentration (IC50) at DPP-IV enzyme was less than 0.03 µM.

Regarding `N[C@H]1C[C@@H](N2CC3=C(CN(C(=O)C4CCCC4)C3)C2)CO[C@@H]1c1cc(F)ccc1F` [Compound 25, (5-((3R,5S,6R)-5-amino-6-(2,5-difluorophenyl)tetrahydro-2H-pyran-3-yl)-5,6-dihydropyrrolo[3,4-c]pyrrol-2(1H,3H,4H)-yl)(cyclopentyl)methanone], the change in vivo at 0.3 mg/kg in the assay with C57BL/6J mice is -12.2 ± 2.5%. For the same compound, the half-maximal inhibitory concentration (IC50) on DPP-IV enzyme is less than 0.03 µM.

As to `N[C@H]1C[C@@H](N2CC3=C(CN(C(=O)C4CCCCC4)C3)C2)CO[C@@H]1c1cc(F)ccc1F` [Compound 26, (5-((3R,5S,6R)-5-amino-6-(2,5-difluorophenyl)tetrahydro-2H-pyran-3-yl)-5,6-dihydropyrrolo[3,4-c]pyrrol-2(1H,3H,4H)-yl)(cyclohexyl)methanone], the change in vivo at 0.3 mg/kg with C57BL/6J mice was -20.1 ± 1.4%. Also, the IC50 at DPP-IV enzyme is less than 0.03 µM.

Consider `COC(=O)N1CC2=C(C1)CN([C@H]1CO[C@H](c3cc(F)ccc3F)[C@@H](N)C1)C2` [Compound 27, (2R,3S,5R)-2-(2,5-difluorophenyl)-5-(5-(methoxycarbonyl)-5,6-dihydropyrrolo-[3,4-c]pyrrol-2(1H,3H,4H)-yl)tetrahydro-2H-pyran-3-amine], for which the change in vivo at 0.3 mg/kg in the assay with C57BL/6J mice is -13.7 ± 1.2%. On DPP-IV enzyme, the IC50 is less than 0.01 µM.

As for `CCOC(=O)N1CC2=C(C1)CN([C@H]1CO[C@H](c3cc(F)ccc3F)[C@@H](N)C1)C2` [Compound 28, (2R,3S,5R)-2-(2,5-difluorophenyl)-5-(5-(ethoxycarbonyl)-5,6-dihydropyrrolo[3,4-c]pyrrol-2(1H,3H,4H)-yl)tetrahydro-2H-pyran-3-amine], in the assay on C57BL/6J mice, the change in vivo at 0.3 mg/kg is -35 ± 6.1%. For the same compound, the 50% inhibitory concentration (IC50) on DPP-IV enzyme is less than 0.01 µM.

`N[C@H]1C[C@@H](N2CC3=C(C2)CN(S(=O)(=O)C(F)(F)F)C3)CO[C@@H]1c1cc(F)ccc1F` [Compound 29, (2R,3S,5R)-2-(2,5-difluorophenyl)-5-(5-((trifluoromethyl)sulfonyl)-5,6-dihydropyrrolo[3,4-c]pyrrol-2(1H,3H,4H)-yl)tetrahydro-2H-pyran-3-amine]: the change in vivo at 0.3 mg/kg with C57BL/6J mice was -27.7 ± 3.1%. Moreover, the IC50 at DPP-IV enzyme is less than 0.03 µM.

For the compound `CCS(=O)(=O)N1CC2=C(CN([C@H]3CO[C@H](c4cc(F)ccc4F)[C@@H](N)C3)C2)C1` [Compound 30, (2R,3S,5R)-2-(2,5-difluorophenyl)-5-(5-(ethylsulfonyl)-5,6-dihydropyrrolo[3,4-c]pyrrol-2(1H,3H,4H)-yl)tetrahydro-2H-pyran-3-amine], in the assay on C57BL/6J mice, the change in vivo at 0.3 mg/kg is -35 ± 1.4%. Also, the IC50 on DPP-IV enzyme is less than 0.01 µM.

On to `CC(C)S(=O)(=O)N1CC2=C(CN([C@H]3CO[C@H](c4cc(F)ccc4F)[C@@H](N)C3)C2)C1` [Compound 31, (2R,3S,5R)-2-(2,5-difluorophenyl)-5-(5-(isopropylsulfonyl)-5,6-dihydropyrrolo[3,4-c]pyrrol-2(1H,3H,4H)-yl)tetrahydro-2H-pyran-3-amine], for which the change in vivo at 0.3 mg/kg with C57BL/6J mice was -28.1 ± 3.2%. Further, at DPP-IV enzyme, the IC50 was less than 0.01 µM.

In the case of `N[C@H]1C[C@@H](N2CC3=C(C2)CN(S(=O)(=O)c2ccccc2)C3)CO[C@@H]1c1cc(F)ccc1F` [Compound 32, (2R,3S,5R)-2-(2,5-difluorophenyl)-5-(5-(phenylsulfonyl)-5,6-dihydropyrrolo[3,4-c]pyrrol-2(1H,3H,4H)-yl)tetrahydro-2H-pyran-3-amine], the change in vivo at 0.3 mg/kg in the assay with C57BL/6J mice is -25.3 ± 3.9%. Further, on DPP-IV enzyme, the 50% inhibitory concentration (IC50) is less than 0.01 µM.

On to `N[C@H]1C[C@@H](N2CC3=C(C2)CN(S(=O)(=O)c2ccc(F)cc2)C3)CO[C@@H]1c1cc(F)ccc1F` [Compound 33, (2R,3S,5R)-2-(2,5-difluorophenyl)-5-(5-((4-fluorophenyl)sulfonyl)-5,6-dihydropyrrolo[3,4-c]pyrrol-2 (1H,3H,4H)-yl)tetrahydro-2H-pyran-3-amine], for which the change in vivo at 0.3 mg/kg in the assay on C57BL/6J mice is -16.8 ± 1.6%. Further, the half-inhibitory concentration (IC50) on DPP-IV enzyme was less than 0.03 µM.

As for `N#Cc1ccc(S(=O)(=O)N2CC3=C(CN([C@H]4CO[C@H](c5cc(F)ccc5F)[C@@H](N)C4)C3)C2)cc1` [Compound 34, 4-((5-((3R,5S,6R)-5-amino-6-(2,5-difluorophenyl)tetrahydro-2H-pyran-3-yl)-5,6-dihydropyrrolo[3,4-c]pyrrol-2(1H,3H,4H)-yl)sulfonyl)benzonitrile], the change in vivo at 0.3 mg/kg with C57BL/6J mice is -30.1 ± 3.4%. Besides, the IC50 on DPP-IV enzyme was less than 0.01 µM.

Turning to `N[C@H]1C[C@@H](N2CC3=C(C2)CN(S(=O)(=O)c2ccc(OC(F)(F)F)cc2)C3)CO[C@@H]1c1cc(F)ccc1F` [Compound 35, (2R,3S,5R)-2-(2,5-difluorophenyl)-5-(5-((4-(trifluoromethoxy)phenyl)sulfonyl)-5,6-dihydropyrrolo[3,4-c]pyrrol-2(1H,3H,4H)-yl)tetrahydro-2H-pyran-3-amine], in the assay on C57BL/6J mice, the change in vivo at 0.3 mg/kg was -20.5 ± 3.8%. Also, at DPP-IV enzyme, the IC50 was less than 0.03 µM.

On to `N[C@H]1C[C@@H](N2CC3=C(C2)CN(S(=O)(=O)c2ccc(F)cc2F)C3)CO[C@@H]1c1cc(F)ccc1F` [Compound 36, (2R,3S,5R)-2-(2,5-difluorophenyl)-5-(5-((2,4-difluorophenyl)sulfonyl)-5,6-dihydropyrrolo[3,4-c]pyrrol-2(1H,3H,4H)-yl)tetrahydro-2H-pyran-3-amine], for which, in the assay on C57BL/6J mice, the change in vivo at 0.3 mg/kg was -22.2 ± 2.5%. Also, the IC50 on DPP-IV enzyme was less than 0.01 µM.

For the compound `Cc1ccc(S(=O)(=O)N2CC3=C(CN([C@H]4CO[C@H](c5cc(F)ccc5F)[C@@H](N)C4)C3)C2)cc1` [Compound 37, (2R,3S,5R)-2-(2,5-difluorophenyl)-5-(5-tosyl-5,6-dihydropyrrolo[3,4-c]pyrrol-2(1H,3H,4H)-yl)tetrahydro-2H-pyran-3-amine], the change in vivo at 0.3 mg/kg in the assay on C57BL/6J mice was -25.1 ± 3.2%. Besides, the IC50 at DPP-IV enzyme is less than 0.03 µM.

With `COc1ccc(S(=O)(=O)N2CC3=C(CN([C@H]4CO[C@H](c5cc(F)ccc5F)[C@@H](N)C4)C3)C2)cc1` [Compound 38, (2R,3S,5R)-2-(2,5-difluorophenyl)-5-(5-((4-methoxyphenyl)sulfonyl)-5,6-dihydropyrrolo[3,4-c]pyrrol-2(1H,3H,4H)-yl)tetrahydro-2H-pyran-3-amine], the change in vivo at 0.3 mg/kg in the assay with C57BL/6J mice is -22 ± 2.6%. Moreover, the half-inhibitory concentration (IC50) at DPP-IV enzyme was less than 0.01 µM.

Regarding `CC(C)c1ccc(S(=O)(=O)N2CC3=C(CN([C@H]4CO[C@H](c5cc(F)ccc5F)[C@@H](N)C4)C3)C2)cc1` [Compound 39, (2R,3S,5R)-2-(2,5-difluorophenyl)-5-(5-((4-isopropylphenyl)sulfonyl)-5,6-dihydropyrrolo[3,4-c]pyrrol-2(1H,3H,4H)-yl)tetrahydro-2H-pyran-3-amine], in the assay with C57BL/6J mice, the change in vivo at 0.3 mg/kg was -25.1 ± 3.6%. For the same compound, the IC50 on DPP-IV enzyme was less than 0.01 µM.

Regarding `N[C@H]1C[C@@H](N2CC3=C(C2)CN(S(=O)(=O)c2ccc(C(F)(F)F)cc2)C3)CO[C@@H]1c1cc(F)ccc1F` [Compound 40, (2R,3S,5R)-2-(2,5-difluorophenyl)-5-(5-((4-(trifluoromethyl)phenyl)sulfonyl)-5,6-dihydropyrrolo[3,4-c]pyrrol-2(1H,3H,4H)-yl)tetrahydro-2H-pyran-3-amine], the change in vivo at 0.3 mg/kg with C57BL/6J mice is -14 ± 1.5%. Besides, the half-inhibitory concentration (IC50) at DPP-IV enzyme is less than 0.03 µM.

Regarding `CC(=O)N1CC2=C(C1)CN([C@H]1CO[C@H](c3cc(F)ccc3F)[C@@H](N)C1)C2` [Compound 41, (2R,3S,5R)-5-(5-acetyl-5,6-dihydropyrrolo[3,4-c]pyrrol-2(1H,3H,4H)-yl)-2-(2,5-difluorophenyl)tetrahydro-2H-pyran-3-amine], the change in vivo at 0.3 mg/kg in the assay on C57BL/6J mice is -6.04 ± 2.6%. Moreover, the half-inhibitory concentration (IC50) on DPP-IV enzyme was less than 0.1 µM.

In the case of `CC(C)CS(=O)(=O)N1CC2=C(CN([C@H]3CO[C@H](c4cc(F)ccc4F)[C@@H](N)C3)C2)C1` [Compound 42, (2R,3S,5R)-2-(2,5-difluorophenyl)-5-(5-(isobutylsulfonyl)-5,6-dihydropyrrolo[3,4-c]pyrrol-2(1H,3H,4H)-yl)tetrahydro-2H-pyran-3-amine], the change in vivo at 0.3 mg/kg with C57BL/6J mice was -25.1 ± 2.8%. Besides, the concentration for half-maximal inhibition (IC50) at DPP-IV enzyme was less than 0.03 µM.
